≈ marks a conversion by molar mass, not a printed value. Like-named read-outs stand apart in the source and are kept apart here.
Tests used:
C. albicans = assay: Antifungal activities, MIC/MFC; assay type: cell-based; details: C. albicans; for MIC: Table 2, 1st value in brackets, read-out: minimum inhibitory concentration (MIC)
Protocol: (§1) A similar sequence of reactions was carried out using lysine dicholamide in place of cholic acid afforded VJ-1147 of Table 2. To assess the antifungal properties of the diwalled VJ-1138 (Table 2) and 2a of Table 3, their in vitro activities were examined against four clinically relevant microbes, i.e., C. albicans, C. glabrata, C. neoformans, and C. gatti (Table 4).
(§2) Minimum inhibitory concentrations (MIC) and minimum fungicidal concentrations (MFC) are the lowest concentrations that are required for completely inhibiting growth, and killing at least 99% of the fungi, respectively.
(§3) The above molecules were tested for antifungal activity. Minimum inhibitory concentrations (MIC) and minimum fungicidal concentrations (MFC) are the lowest concentrations that are required for completely inhibiting growth, and killing at least 99% of the fungi, respectively. As is apparent from Table 4 below, there is a general trend; i.e., increased antifungal activity is observed as the length of the hydrocarbon chain that separates the facial amphiphile from the Amphotericin B moiety is decreased.

C. neoformans = assay: Antifungal activities, MIC/MFC; assay type: cell-based; details: C. neoformans; for MIC: Table 2, 3rd value in brackets, read-out: minimum inhibitory concentration (MIC)
Protocol: as §1, §2, §3

C. gatti = assay: Antifungal activities, MIC/MFC; assay type: cell-based; details: C. gatti; for MIC: Table 2, 4th value in brackets, read-out: minimum inhibitory concentration (MIC)
Protocol: as §1, §2, §3

C. glabrata = assay: Antifungal activities, MIC/MFC; assay type: cell-based; details: C. glabrata; for MIC: Table 2, 2nd value in brackets, read-out: minimum inhibitory concentration (MIC)
Protocol: as §1, §2, §3

sheep red blood cells = assay: Hemolysis measurements, release of hemoglobin; assay type: cell-based; details: up to concentrations of 500 μM; 37° C. in PBS, pH 7.4
Protocol: Sheep Red Blood Cells, 10%, in saline (Innovative Research, Novi, Mich.), were diluted in saline (pH 7.4) to a concentration of 4%, which corresponds to 4×10^7 cells/mL. All measurements were carried out in duplicate. Solutions of Amphotericin B (Sigma-Aldrich) were prepared by adding 10 μL of a DMSO solution containing a given concentration of the antibiotic (i.e., ranging from 0.2 mM to 50 mM) to 490 μL of PBS. After the resulting solution was vortex mixed for 30 seconds (s) it was incubated at 37° C. for 15 min. The resulting solution of antibiotic (500 μL) was then mixed with 500 μL of the 4% erythrocyte dispersion at 37° C. in a 1 mL plastic centrifuge vial to give a dispersion that was vortex mixed at slow rate for 5 s. After 1 h of incubation at 37° C., all samples were centrifuged (1500 g, Eppendorf centrifuge 5415C, 5000 rpm) at rt for 5 min. The supernatant (˜0.7 mL) from each plastic vial was carefully separated from sediment using a disposable glass pipette and quickly transferred to test tube. A volume of 50 μL of this supernatant was then transferred to a UV cell containing 500 μL of PBS that was maintained at 37° C. The UV spectrum was then scanned (450-650 nm) and the absorbance at 575 nm used to determine the extent of hemolysis. The extent of 0% and 100% of hemolysis was obtained from A575 values of experiments that were run in absence of AmphB (control, [A575,]o) and in presence, 100 μM AmphB ([A575]max), respectively.

Cryptococcus neoformans = assay: Cryptococcosis mouse model, brain and lung tissue burden; assay type: in vivo, mice; details: after intravenous administration
Protocol: Cryptococcosis mice are infected via tail vein injection of 5×10^4 C. neoformans cells. Inocula are verified by quantitative culture. Animals are identified by temporary ink marking, assigned to groups of 10 mice. Test compounds will be dosed starting on the day of infection. Initial studies will employ i.v., i.p. or oral (gavage) dosing (depending on the compound and the vehicle). Antifungal compounds are given for a period of 7 days. […] On day 8, the lung and brain are evaluated by quantitative culture per gram of tissue, by weighing organs and culturing serially diluted homogenates. These tissue burden studies permit detection of drug efficacy that may not be evident by using a survival endpoint.
The mice were then sacrificed 7 days later for quantitative culture of brain and lung, with cryptococcal cells per gram tissue being expressed as logarithmic values (log 10). Mean values for each group were compared using the t-test.

Work on `CC1OC(O[C@H]2/C=C/C=C/C=C/C=C/C=C/C=C/C=C/[C@H](C)[C@@H](O)[C@@H](C)[C@H](C)OC(=O)C[C@H](O)C[C@H](O)CC[C@@H](O)[C@H](O)C[C@H](O)C[C@]3(O)C[C@H](O)[C@@H](C(=O)NCCCCNC(=O)C(CCCCNC(=O)CC[C@@H](C)C4CCC5C6C(O)CC7CC(OC(=O)NCCCCN)CCC7(C)C6CC(O)C54C)NC(=O)CC[C@@H](C)C4CCC5C6C(O)CC7CC(OC(=O)NCCCCN)CCC7(C)C6CC(O)C54C)[C@H](C2)O3)C(O)C(N)C1O` (stereo partly drawn) [YM-18] yielded an MIC (C. albicans) of 2 µM (≈ 4.26 µg/mL), an MIC (C. neoformans) of 2 µM (≈ 4.26 µg/mL) and an MIC (C. gatti) of 2 µM (≈ 4.26 µg/mL). It also gave an MIC (C. glabrata) of 16 µM (≈ 34.1 µg/mL).

`CC1OC(O[C@H]2/C=C/C=C/C=C/C=C/C=C/C=C/C=C/[C@H](C)[C@@H](O)[C@@H](C)[C@H](C)OC(=O)C[C@H](O)C[C@H](O)CC[C@@H](O)[C@H](O)C[C@H](O)C[C@]3(O)C[C@H](O)[C@@H](C(=O)NCCCCCCNC(=O)CC[C@@H](C)C4CCC5C6C(O)CC7CC(O)CCC7(C)C6CC(O)C54C)[C@H](C2)O3)C(O)C(N)C1O` (stereo partly drawn) [YYM-72] was tested, and the hemolytic activity (sheep red blood cells) was “negligible hemolytic activity”.

`CC1OC(O[C@H]2/C=C/C=C/C=C/C=C/C=C/C=C/C=C/[C@H](C)[C@@H](O)[C@@H](C)[C@H](C)OC(=O)C[C@H](O)C[C@H](O)CC[C@@H](O)[C@H](O)C[C@H](O)C[C@]3(O)C[C@H](O)[C@@H](C(=O)NCCCCNC(=O)C(CCCCNC(=O)CC[C@@H](C)C4CCC5C6C(O)CC7CC(OC(=O)NCCN(C)C)CCC7(C)C6CC(O)C54C)NC(=O)CC[C@@H](C)C4CCC5C6C(O)CC7CC(OC(=O)NCCN(C)C)CCC7(C)C6CC(O)C54C)[C@H](C2)O3)C(O)C(N)C1O` (stereo partly drawn) [YM-19] gave an MIC (C. albicans) of 4 µM (≈ 8.53 µg/mL), an MIC (C. neoformans) of 2 µM (≈ 4.26 µg/mL) and an MIC (C. gatti) of 2 µM (≈ 4.26 µg/mL). The MIC (C. glabrata) was 32 µM (≈ 68.2 µg/mL).

`CC1OC(O[C@H]2/C=C/C=C/C=C/C=C/C=C/C=C/C=C/[C@H](C)[C@@H](O)[C@@H](C)[C@H](C)OC(=O)C[C@H](O)C[C@H](O)CC[C@@H](O)[C@H](O)C[C@H](O)C[C@]3(O)C[C@H](O)[C@@H](C(=O)NCCOCCOCCC(=O)N(CCCCNC(=O)CC[C@@H](C)C4CCC5C6C(O)CC7CC(O)CCC7(C)C6CC(O)C54C)CCCNC(=O)CC[C@@H](C)C4CCC5C6C(O)CC7CC(O)CCC7(C)C6CC(O)C54C)[C@H](C2)O3)C(O)C(N)C1O` (stereo partly drawn) [YM-42] showed an MIC (C. albicans; Candida albicans) of over 16 µM, an MIC (C. neoformans; Cryptococcus neoformans) of over 16 µM and an MIC (C. gatti) of over 16 µM. It also gave an MIC (C. glabrata; Nakaseomyces glabratus) of over 16 µM.

In the case of `CC1OC(O[C@H]2/C=C/C=C/C=C/C=C/C=C/C=C/C=C/[C@H](C)[C@@H](O)[C@@H](C)[C@H](C)OC(=O)C[C@H](O)C[C@H](O)CC[C@@H](O)[C@H](O)C[C@H](O)C[C@]3(O)C[C@H](O)[C@@H](C(=O)NCCCCCCCC(=O)N(CCCCNC(=O)CC[C@@H](C)C4CCC5C6C(OC(=O)NCCCCN)CC7CC(OC(=O)NCCCCN)CCC7(C)C6CC(OC(=O)NCCCCN)C54C)CCCNC(=O)CC[C@@H](C)C4CCC5C6C(OC(=O)NCCCCN)CC7CC(OC(=O)NCCCCN)CCC7(C)C6CC(OC(=O)NCCCCN)C54C)[C@H](C2)O3)C(O)C(N)C1O` (stereo partly drawn) [VJ-1147], the MIC (C. albicans) is reported as 8 µM (≈ 21.3 µg/mL), the MIC (C. neoformans) is reported as 8 µM (≈ 21.3 µg/mL) and the MIC (C. gatti) is reported as 8 µM (≈ 21.3 µg/mL). It also gave an MIC (C. glabrata) of 16 µM (≈ 42.5 µg/mL).

For `CC1OC(O[C@H]2/C=C/C=C/C=C/C=C/C=C/C=C/C=C/[C@H](C)[C@@H](O)[C@@H](C)[C@H](C)OC(=O)C[C@H](O)C[C@H](O)CC[C@@H](O)[C@H](O)C[C@H](O)C[C@]3(O)C[C@H](O)[C@@H](C(=O)NCCCCNC(=O)C(CCCCNC(=O)CC[C@@H](C)C4CCC5C6C(O)CC7CC(OC(=O)NCC(O)C(O)C(O)C(O)CO)CCC7(C)C6CC(O)C54C)NC(=O)CC[C@@H](C)C4CCC5C6C(O)CC7CC(OC(=O)NCC(O)C(O)C(O)C(O)CO)CCC7(C)C6CC(O)C54C)[C@H](C2)O3)C(O)C(N)C1O` (stereo partly drawn) [YM-13], the MIC (C. albicans) was 8 µM (≈ 18.5 µg/mL), the MIC (C. neoformans) was 2 µM (≈ 4.64 µg/mL) and the MIC (C. gatti) was 4 µM (≈ 9.27 µg/mL). For the same compound, the MIC (C. glabrata) was 8 µM (≈ 18.5 µg/mL).

`CC1OC(O[C@H]2/C=C/C=C/C=C/C=C/C=C/C=C/C=C/[C@H](C)[C@@H](O)[C@@H](C)[C@H](C)OC(=O)C[C@H](O)C[C@H](O)CC[C@@H](O)[C@H](O)C[C@H](O)C[C@]3(O)C[C@H](O)[C@@H](C(=O)NCCCCNC(=O)C(CCCCNC(=O)CC[C@@H](C)C4CCC5C6C(O)CC7CC(O)CCC7(C)C6CC(O)C54C)NC(=O)CC[C@@H](C)C4CCC5C6C(O)CC7CC(O)CCC7(C)C6CC(O)C54C)[C@H](C2)O3)C(O)C(N)C1O` (stereo partly drawn) [YM-15] showed an MIC (C. albicans; Candida albicans) of over 16 µM, an MIC (C. neoformans; Cryptococcus neoformans) of over 16 µM and an MIC (C. gatti) of 4 µM (≈ 7.61 µg/mL). For the same compound, the MIC (C. glabrata; Nakaseomyces glabratus) was over 16 µM.

`CC1OC(O[C@H]2/C=C/C=C/C=C/C=C/C=C/C=C/C=C/[C@H](C)[C@@H](O)[C@@H](C)[C@H](C)OC(=O)C[C@H](O)C[C@H](O)CC[C@@H](O)[C@H](O)C[C@H](O)C[C@]3(O)C[C@H](O)[C@@H](C(=O)NCCSSCCC(=O)N(CCCCNC(=O)C(CCCCNC(=O)CC[C@@H](C)C4CCC5C6C(OS(=O)(=O)[O-])CC7CC(OS(=O)(=O)[O-])CCC7(C)C6CC(OS(=O)(=O)[O-])C54C)NC(=O)CC[C@@H](C)C4CCC5C6C(OS(=O)(=O)[O-])CC7CC(OS(=O)(=O)[O-])CCC7(C)C6CC(OS(=O)(=O)[O-])C54C)CCCNC(=O)C(CCCCNC(=O)CC[C@@H](C)C4CCC5C6C(OS(=O)(=O)[O-])CC7CC(OS(=O)(=O)[O-])CCC7(C)C6CC(OS(=O)(=O)[O-])C54C)NC(=O)CC[C@@H](C)C4CCC5C6C(OS(=O)(=O)[O-])CC7CC(OS(=O)(=O)[O-])CCC7(C)C6CC(OS(=O)(=O)[O-])C54C)[C@H](C2)O3)C(O)C(N)C1O.[Na+].[Na+].[Na+].[Na+].[Na+].[Na+].[Na+].[Na+].[Na+].[Na+].[Na+].[Na+]` (stereo partly drawn) [compound 10] was tested, and the “activity in brain and lung tissue” value (Cryptococcus neoformans) was “negligible activity”, the “minimum inhibitory concentration (MIC in μM) relative to AmphB” value (C. albicans; 1st value in brackets) was over 426 µM and the “minimum inhibitory concentration (MIC in μM) relative to AmphB” value (C. neoformans; 3rd value in brackets) was over 426 µM. For the same compound, the “minimum inhibitory concentration (MIC in μM) relative to AmphB” value (C. gatti; 4th value in brackets) was over 426 µM and the “minimum inhibitory concentration (MIC in μM) relative to AmphB” value (C. glabrata; 2nd value in brackets) was over 426 µM.
